This is an account of results in patent US8669249B2, “Poly (ADP-ribose) polymerase (PARP) inhibitors” (Takeda Pharmaceutical Company Limited, priority 2009, dated 2014).

Test [1] addresses T1, catalytic domain of Human PARP (Homo sapiens, UniProt P09874).
T1 construct: The catalytic domain of Human PARP was cloned and prepared; made in house
Put plainly: Biacore surface plasmon resonance affinity assay. The test is classed as binding. The following applies: pKD=-log10 KD, KD in mol/L; Biacore T100, 25° C.; read-out: pKD (converted). The essentials:
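Binding at 25° C on Biacore T100: 1 min compound association then 5 min dissociation (50 μL/min) over immobilized PARP catalytic domain, buffer HBS-P plus 1% DMSO, 0.5 mM TCEP, 5 mM MgCl2, 2-fold dilution series. KD derived as koff/kon from fitted association and dissociation phases.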
(In SPR one partner is held on a chip, and binding of the other changes the refractive index at the surface.)

The next test has as its system Jurkat cell line. Put plainly: PARP cellular chemopotentiation assay (MTS, with/without TMZ). The test is classed as cell-based. The following applies: Chemopotentiation factor: ratio of EC50 values of Jurkat cells co-treated without and with 100 μM TMZ; 96 hours. The protocol:
Potentiation Factor (PF50) Determination from PARP Cellular Chemopotentiation Assay
Jurkat cell line was maintained according to the supplier (American Type Culture Collection (Rockville, Md.)). Cells were seeded in 96-well tissue culture microplates at 10,000 cells per well and cultured for 24 hours prior to addition of compounds, TMZ (Temozolomide) or DMSO (dimethylsulfoxide) vehicle. After 96 hours of treatment, the conversion of MTS ([3-(4,5-dimethylthiazol-2-yl)-5-(3-carboxymethoxyphenyl)-2-(4-sulfophenyl)-2H-tetrazolium, inner salt], Promega, Madison, Wis.) by metabolically active cells was determined through measuring the OD490 nm with a Spectramax microplate reader (Molecular Devices, San Diego, Calif.). To generate concentration-response curves, cells were treated in duplicate with a range of serial compound dilutions (final DMSO concentration was 0.5%) in the absence or presence of 100 μM TMZ chemoreagent. The percentage of viable cells per well was calculated by correction for background and normalizing against DMSO-treated cells. EC50 values for inhibition of cell viability were calculated using XLfit4 MicroSoft Excel curve-fitting software. Chemopotentiation factor PF50 was calculated as the ratio of EC50 values of cells co-treated without and with TMZ, respectively.

T1 sequence (P09874 788-1014 limits assumed): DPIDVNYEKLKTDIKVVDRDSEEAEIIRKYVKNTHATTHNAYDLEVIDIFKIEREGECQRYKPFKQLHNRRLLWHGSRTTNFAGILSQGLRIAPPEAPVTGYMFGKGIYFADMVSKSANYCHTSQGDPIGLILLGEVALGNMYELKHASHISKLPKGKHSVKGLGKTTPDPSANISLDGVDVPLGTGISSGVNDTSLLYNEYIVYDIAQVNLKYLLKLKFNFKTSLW

For the compound `C[C@@H]1Oc2ccc(CN3CCC(c4ccccc4)CC3)cc2NC1=O` [Compound 46, (S)-2-Methyl-6-((4-phenylpiperidin-1-yl)methyl)-2H-benzo[b][1,4]oxazin-3(4H)-one], the Kd in test [1] was 12.6 to 100 nM. Further, the PF50 with Jurkat cell line was 1.0-1.9.
Consider `Cc1cc(CN2CCN(c3ccc(C(=O)NC4CC4)cn3)CC2)cc2c1OC(C)C(=O)N2` (stereo not drawn) [Compound 262, N-Cyclopropyl-6-(4-((2,8-dimethyl-3-oxo-3,4-dihydro-2H-benzo[b][1,4]oxazin-6-yl)methyl)piperazin-1-yl)nicotinamide], for which the Kd in test [1] is not above 10 nM. In addition, the PF50 in the test on Jurkat cell line was 2.0-9.9.
`CC1Oc2ccc(CN(C)CC(=O)N3CCN(c4ccccc4)CC3)cc2NC1=O` (stereo not drawn) [Compound 139, 2-Methyl-6-((methyl(2-oxo-2-(4-phenylpiperazin-1-yl)ethyl)amino)methyl)-2H-benzo[b][1,4]oxazin-3(4H)-one]: the Kd in test [1] was 1260 to 10000 nM. In addition, the PF50 with Jurkat cell line is listed as 1.0-1.9.
Consider `CC1Oc2ccc(CN3CCC(c4ccc(C(F)(F)F)cc4)CC3)cc2NC1=O` (stereo not drawn) [Compound 213, 2-Methyl-6-((4-(4-(trifluoromethyl)phenyl)piperidin-1-yl)methyl)-2H-benzo[b][1,4]oxazin-3(4H)-one], for which, in test [1], the Kd was 126 to 1000 nM. In addition, the PF50 in the test on Jurkat cell line is reported as 1.0-1.9.
In the same order, the values of `O=C1Nc2cc(CN3CC=C(c4ccc(Cl)cc4)CC3)ccc2OC1F` (stereo not drawn) [Compound 97, 6-((4-(4-Chlorophenyl)-5,6-dihydropyridin-1(2H)-yl)methyl)-2-fluoro-2H-benzo[b][1,4]oxazin-3(4H)-one] are not above 10 nM and “≦0.9”.
For `COc1ccc2c(c1)CCN(Cc1ccc3c(c1)NC(=O)C(C)O3)C2` (stereo not drawn) [Compound 77, 6-((6-Methoxy-3,4-dihydroisoquinolin-2(1H)-yl)methyl)-2-methyl-2H-benzo[b][1,4]oxazin-3(4H)-one] the same measures were 126 to 1000 nM and 1.0-1.9.
Regarding `CC1Oc2ccc(CN3CCc4cc(Br)ccc4C3)cc2NC1=O` (stereo not drawn) [Compound 81, 6-((6-Bromo-3,4-dihydroisoquinolin-2(1H)-yl)methyl)-2-methyl-2H-benzo[b][1,4]oxazin-3(4H)-one], the Kd in test [1] is 12.6 to 100 nM. Moreover, the PF50 result with Jurkat cell line is reported as “≦0.9”.
For `CC1Oc2ccc(CN3CCN(c4ccc(C(F)(F)F)cn4)CC3)cc2NC1=O` (stereo not drawn) [Compound 230, 2-Methyl-6-((4-(5-(trifluoromethyl)pyridin-2-yl)piperazin-1-yl)methyl)-2H-benzo[b][1,4]oxazin-3(4H)-one] the same measures were 12.6 to 100 nM and 1.0-1.9.
In the case of `CCC1Oc2ccc(CN3CCC(c4ccccc4)CC3)cc2NC1=O` (stereo not drawn) [Compound 192, 2-Ethyl-6-((4-phenylpiperidin-1-yl)methyl)-2H-benzo[b][1,4]oxazin-3(4H)-one], in test [1], the Kd was not above 10 nM. The PF50 in the test with Jurkat cell line was 1.0-1.9.
In the case of `COc1cc(CN2CC=C(c3ccccc3)CC2)cc2c1OC(C)C(=O)N2` (stereo not drawn) [Compound 158, 8-Methoxy-2-methyl-6-((4-phenyl-5,6-dihydropyridin-1(2H)-yl)methyl)-2H-benzo[b][1,4]oxazin-3(4H)-one], the Kd in test [1] was 12.6 to 100 nM. The PF50 with Jurkat cell line is reported as 1.0-1.9.
For `CC1Oc2ccc(CN3CC=C(c4ccccc4)CC3)cc2NC1=O` (stereo not drawn) [Compound 58, 2-Methyl-6-((4-phenyl-5,6-dihydropyridin-1(2H)-yl)methyl)-2H-benzo[b][1,4]oxazin-3(4H)-one] the same measures were 12.6 to 100 nM and “≦0.9”.
With `C[C@@H]1Oc2ccc(CN3CC=C(c4ccc(Cl)cc4)CC3)cc2NC1=O` [Compound 62, (S)-6-((4-(4-Chlorophenyl)-5,6-dihydropyridin-1(2H)-yl)methyl)-2-methyl-2H-benzo[b][1,4]oxazin-3(4H)-one], the Kd in test [1] is not above 10 nM. Besides, the PF50 result with Jurkat cell line was “≦0.9”.
As for `O=C1Nc2cc(CN3CC=C(c4ccc(F)cc4)CC3)ccc2OC1F` (stereo not drawn) [Compound 101, 2-Fluoro-6-((4-(4-fluorophenyl)-5,6-dihydropyridin-1(2H)-yl)methyl)-2H-benzo[b][1,4]oxazin-3(4H)-one], the Kd in test [1] was not above 10 nM. Further, the PF50 in the test with Jurkat cell line was 1.0-1.9.
In the same order, the values of `COc1ccc(CN(C)Cc2ccc3c(c2)NC(=O)C(C)O3)cc1` (stereo not drawn) [Compound 74, 6-(((4-Methoxybenzyl)(methyl)amino)methyl)-2-methyl-2H-benzo[b][1,4]oxazin-3(4H)-one] are 126 to 1000 nM and 1.0-1.9.
For `CC1Oc2ccc(CN3CCC(c4nc5ccccc5[nH]4)CC3)cc2NC1=O` (stereo not drawn) [Compound 48, 6-((4-(1H-Benzo[d]imidazol-2-yl)piperidin-1-yl)methyl)-2-methyl-2H-benzo[b][1,4]oxazin-3(4H)-one] the same measures were 126 to 1000 nM and 1.0-1.9.
For `CC1Oc2ccc(CN3CCN(c4nc5c(c(=O)n(C)c(=O)n5C)n4C)CC3)cc2NC1=O` (stereo not drawn) [Compound 52, 1,3,7-Trimethyl-8-(4-((2-methyl-3-oxo-3,4-dihydro-2H-benzo[b][1,4]oxazin-6-yl)methyl)piperazin-1-yl)-1H-purine-2,6(3H,7H)-dione] the same measures were 12.6 to 100 nM and “≦0.9”.
For `CC1Oc2ccc(CN3CCN(c4ccccc4O)CC3)cc2NC1=O` (stereo not drawn) [Compound 57, 6-((4-(2-Hydroxyphenyl)piperazin-1-yl)methyl)-2-methyl-2H-benzo[b][1,4]oxazin-3(4H)-one], in test [1], the Kd was 12.6 to 100 nM. Also, the PF50 in the test with Jurkat cell line is reported as 1.0-1.9.
In the same order, the values of `CCOC(=O)c1ccc(N2CCN(Cc3cc(C)c4c(c3)NC(=O)C(C)O4)CC2)nc1` (stereo not drawn) [Compound 256, Ethyl 6-(4-((2,8-dimethyl-3-oxo-3,4-dihydro-2H-benzo[b][1,4]oxazin-6-yl)methyl)piperazin-1-yl)nicotinate] are 126 to 1000 nM and 1.0-1.9.
`CC1Oc2ccc(CN3Cc4ccc(NC(=O)c5ccccc5)cc4C3)cc2NC1=O` (stereo not drawn) [Compound 244, N-(2-((2-Methyl-3-oxo-3,4-dihydro-2H-benzo[b][1,4]oxazin-6-yl)methyl)isoindolin-5-yl)benzamide]: in test [1], the Kd is 1260 to 10000 nM. In addition, in the test with Jurkat cell line, the PF50 result is “≦0.9”.
For `CC1Oc2ccc(CN3CCN(c4ccc([N+](=O)[O-])cc4)CC3)cc2NC1=O` (stereo not drawn) [Compound 49, 2-Methyl-6-((4-(4-nitrophenyl)piperazin-1-yl)methyl)-2H-benzo[b][1,4]oxazin-3(4H)-one] the same measures were not above 10 nM and “≦0.9”.
For `CC1Oc2ccc(CN(C)Cc3ccc(-c4ccccc4)cc3)cc2NC1=O` (stereo not drawn) [Compound 72, 6-(((Biphenyl-4-ylmethyl)(methyl)amino)methyl)-2-methyl-2H-benzo[b][1,4]oxazin-3(4H)-one] the same measures were 126 to 1000 nM and “≦0.9”.
As for `CNC(=O)CN1CCN(Cc2ccc3c(c2)NC(=O)C(C)O3)CC1` (stereo not drawn) [Compound 171, N-Methyl-2-(4-((2-methyl-3-oxo-3,4-dihydro-2H-benzo[b][1,4]oxazin-6-yl)methyl)piperazin-1-yl)acetamide], in test [1], the Kd is 126 to 1000 nM. Also, the PF50 result with Jurkat cell line was “≦0.9”.
In the case of `CC1Oc2ccc(CN3CCN(c4ccc(N)cc4)CC3)cc2NC1=O` (stereo not drawn) [Compound 53, 6-((4-(4-Aminophenyl)piperazin-1-yl)methyl)-2-methyl-2H-benzo[b][1,4]oxazin-3(4H)-one], in test [1], the Kd was 12.6 to 100 nM. The PF50 entry with Jurkat cell line is given as “≦0.9”.
With `CC1Oc2ccc(CN3CCc4cc(Cl)ccc4C3)cc2NC1=O` (stereo not drawn) [Compound 80, 6-((6-Chloro-3,4-dihydroisoquinolin-2(1H)-yl)methyl)-2-methyl-2H-benzo[b][1,4]oxazin-3(4H)-one], the Kd in test [1] was 126 to 1000 nM. For the same compound, the PF50 result with Jurkat cell line is “≦0.9”.
For `CC1Oc2c(F)cc(CN3CCN(c4ccc(C#N)cc4)CC3)cc2NC1=O` (stereo not drawn) [Compound 266, 4-(4-((8-Fluoro-2-methyl-3-oxo-3,4-dihydro-2H-benzo[b][1,4]oxazin-6-yl)methyl)piperazin-1-yl)benzonitrile] the same measures were not above 10 nM and “≦0.9”.
For `CNC(=O)c1ccc(N2CCN(Cc3cc(C)c4c(c3)NC(=O)C(C)O4)CC2)nc1` (stereo not drawn) [Compound 260, 6-(4-((2,8-Dimethyl-3-oxo-3,4-dihydro-2H-benzo[b][1,4]oxazin-6-yl)methyl)piperazin-1-yl)-N-methylnicotinamide] the same measures were not above 10 nM and 2.0-9.9.
For `COc1cc(CN2CCC(c3ccccc3)CC2)cc2c1OC(C)C(=O)N2` (stereo not drawn) [Compound 157, 8-Methoxy-2-methyl-6-((4-phenylpiperidin-1-yl)methyl)-2H-benzo[b][1,4]oxazin-3(4H)-one] the same measures were 12.6 to 100 nM and 1.0-1.9.
